Assay results taken from ChEMBL document CHEMBL1142904, “Modulating effects of a novel skin-lightening agent, alpha-lipoic acid derivative, on melanin production by the formation of DOPA conjugate products” (Bioorg Med Chem, 2007).
Active and inactive are the calls of the source. No cut-off for these calls is given here.

Key:
B16 = assay: Inhibition of melanin synthesis in mouse B16 cells at 75 uM after 3 days; format: functional; settings: B16, 72 h
[1] = molecular target: T1, Tyrosinase (Agaricus bisporus) (UniProt O42713); assay: Inhibition of mushroom tyrosinase catalyzed oxidation of L-DOPA assessed as DOPAchrome formation at 120 uM
T1 sequence (whole entry): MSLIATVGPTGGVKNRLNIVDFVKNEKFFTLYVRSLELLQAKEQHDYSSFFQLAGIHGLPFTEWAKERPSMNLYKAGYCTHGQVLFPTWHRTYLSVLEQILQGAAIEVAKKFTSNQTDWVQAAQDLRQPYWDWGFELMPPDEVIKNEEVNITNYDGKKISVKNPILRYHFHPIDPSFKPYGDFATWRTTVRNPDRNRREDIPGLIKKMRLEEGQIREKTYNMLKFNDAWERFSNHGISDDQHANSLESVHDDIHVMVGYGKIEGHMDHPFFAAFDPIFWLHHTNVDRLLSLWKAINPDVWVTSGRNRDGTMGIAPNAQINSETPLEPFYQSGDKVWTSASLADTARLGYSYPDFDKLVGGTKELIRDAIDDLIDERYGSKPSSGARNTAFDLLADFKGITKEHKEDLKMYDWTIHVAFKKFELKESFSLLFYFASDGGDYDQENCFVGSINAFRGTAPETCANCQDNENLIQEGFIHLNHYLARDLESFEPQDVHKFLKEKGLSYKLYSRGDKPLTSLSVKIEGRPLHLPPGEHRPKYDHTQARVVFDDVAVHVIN

[2] = molecular target: T1, Tyrosinase (Agaricus bisporus); settings: 4 uM
Description: Inhibition of mushroom tyrosinase at 4 uM

Tyrosinase = molecular target: T2, Tyrosinase (Agaricus bisporus, UniProt O42713); assay: Inhibition of mushroom tyrosinase
T2 sequence (O42713 whole entry): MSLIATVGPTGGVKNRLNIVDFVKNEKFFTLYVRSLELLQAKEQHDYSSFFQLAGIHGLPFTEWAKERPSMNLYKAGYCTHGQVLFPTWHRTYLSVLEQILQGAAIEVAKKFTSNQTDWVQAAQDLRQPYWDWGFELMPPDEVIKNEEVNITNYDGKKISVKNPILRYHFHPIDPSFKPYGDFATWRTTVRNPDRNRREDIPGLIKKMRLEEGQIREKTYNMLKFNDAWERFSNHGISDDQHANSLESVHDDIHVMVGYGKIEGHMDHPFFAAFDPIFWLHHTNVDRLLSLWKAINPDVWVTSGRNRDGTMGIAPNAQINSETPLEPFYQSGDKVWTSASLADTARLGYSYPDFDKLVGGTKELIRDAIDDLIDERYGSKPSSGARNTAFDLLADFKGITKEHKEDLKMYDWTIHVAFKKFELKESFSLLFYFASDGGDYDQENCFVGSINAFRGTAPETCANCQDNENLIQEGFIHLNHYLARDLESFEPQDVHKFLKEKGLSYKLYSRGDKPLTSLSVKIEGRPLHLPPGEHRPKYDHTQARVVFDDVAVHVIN

[3] = substrate: N[C@@H](Cc1ccc(O)c(O)c1)C(=O)O; assay: Activity of mushroom tyrosinase; settings: Agaricus bisporus
[4] = substrate: O=C(CCCCC1CCS[Zn]S1)NC(Cc1c[nH]cn1)C(=O)O; settings: Agaricus bisporus; 1.3 uM
Description: Activity of mushroom tyrosinase at 1.3 uM

Which inhibition at 75 µM (B16) does the source give for OC[C@H]1O[C@H](Oc2ccc(O)cc2)[C@H](O)[C@@H](O)[C@@H]1O here?
Its inhibition at 75 µM is 38.3%.

How did the Activity [1] turn out when O=C(O)CCCC[C@@H](S)CCS [DIHYDROLIPOIC ACID] was run?
Its Activity is “Active”.

And the inhibition at 75 µM (B16)?
Its inhibition at 75 µM is 36.3%.

What does the source list for O=C(CCCCC1CC[S][Zn][S]1)NC(Cc1c[nH]cn1)C(=O)O (centres undefined) [SODIUM ZINC DIHYDROLIPOYLHISTIDINATE]?
Activity [1]: Active; inhibition at 75 µM (B16): 41.5%; inhibition [2]: 82.9%; IC50 (Tyrosinase): 1300 nM

B1: Tyrosinase (Agaricus bisporus), O42713 (protein)
chain: MSLIATVGPTGGVKNRLNIVDFVKNEKFFTLYVRSLELLQAKEQHDYSSFFQLAGIHGLPFTEWAKERPSMNLYKAGYCTHGQVLFPTWHRTYLSVLEQILQGAAIEVAKKFTSNQTDWVQAAQDLRQPYWDWGFELMPPDEVIKNEEVNITNYDGKKISVKNPILRYHFHPIDPSFKPYGDFATWRTTVRNPDRNRREDIPGLIKKMRLEEGQIREKTYNMLKFNDAWERFSNHGISDDQHANSLESVHDDIHVMVGYGKIEGHMDHPFFAAFDPIFWLHHTNVDRLLSLWKAINPDVWVTSGRNRDGTMGIAPNAQINSETPLEPFYQSGDKVWTSASLADTARLGYSYPDFDKLVGGTKELIRDAIDDLIDERYGSKPSSGARNTAFDLLADFKGITKEHKEDLKMYDWTIHVAFKKFELKESFSLLFYFASDGGDYDQENCFVGSINAFRGTAPETCANCQDNENLIQEGFIHLNHYLARDLESFEPQDVHKFLKEKGLSYKLYSRGDKPLTSLSVKIEGRPLHLPPGEHRPKYDHTQARVVFDDVAVHVIN
B1 was tested. Which Km [3] did it give?
The Km was 860 µM.

What about the Km [4] of the same molecule?
Its Km is 4.1 µM.
